The results in this text go back to patent publication US20180002288A1, “USE OF PICOLINAMIDES AS FUNGICIDES” (DOW AGROSCIENCES LLC, priority 2014, published 2018).

Experiment [1] has as its system Puccinia triticina. In words: Wheat Brown Rust fungicidal activity (PUCCRT). The settings on record: Low Volume Cereal Activity at 121.5 g/Ha. The class given is in vivo.
Experiment [2] relates to Leptosphaeria nodorum. In words: Wheat Glume Blotch fungicidal activity (LEPTNO). The format is in vivo. The settings on record: Parastagonospora nodorum, 24 h, high volume, 1 Day Protectant, read-out: LEPTNO % Control rating. On the procedure: All fungicides were evaluated using the aforementioned method for their activity vs. all target diseases, unless stated otherwise. Wheat leaf blotch and brown rust activity were also evaluated using track spray applications, in which case the fungicides were formulated as EC formulations, containing 0.1% Trycol 5941 in the spray solutions. Wheat plants (variety Yuma) were grown from seed in a greenhouse in 50% mineral soil/50% soil-less Metro mix until the first leaf was fully emerged, with 7-10 seedlings per pot. These plants were inoculated with an aqueous spore suspension of Zymoseptoria tritici either prior to or after fungicide treatments. After inoculation the plants were kept in 100% relative humidity (one day in a dark dew chamber followed by two to three days in a lighted dew chamber at 20° C.) to permit spores to germinate and infect the leaf. The plants were then transferred to a greenhouse set at 20° C. for disease to develop. When disease symptoms were fully expressed on the 1st leaves of untreated plants, infection levels were assessed on a scale of 0 to 100 percent disease severity. Percent disease control was calculated using the ratio of disease severity on treated plants relative to untreated plants. Wheat plants (variety Yuma) were grown from seed in a greenhouse in 50% mineral soil/50% soil-less Metro mix until the first leaf was fully emerged, with 7-10 seedlings per pot. These plants were inoculated with an aqueous spore suspension of Leptosphaeria nodorum 24 hr after fungicide treatments. After inoculation the plants were kept in 100% relative humidity (one day in a dark dew chamber followed by two days in a lighted dew chamber at 20° C.) to permit spores to germinate and infect the leaf. The plants were then transferred to a greenhouse set at 20° C. for disease to develop. Fungicide formulation, application and disease assessment followed the procedures as described in the Example A.

In experiment [3] the test system is Cercospora beticola. The experiment can be described thus: Leaf Spot of Sugar Beets fungicidal activity (CERCBE). The settings on record: 24 h, sugar beet, high volume, 1 Day Protectant, read-out: CERCBE % Control rating. The class given is in vivo. As for the experimental part: All fungicides were evaluated using the aforementioned method for their activity vs. all target diseases, unless stated otherwise. Wheat leaf blotch and brown rust activity were also evaluated using track spray applications, in which case the fungicides were formulated as EC formulations, containing 0.1% Trycol 5941 in the spray solutions. Wheat plants (variety Yuma) were grown from seed in a greenhouse in 50% mineral soil/50% soil-less Metro mix until the first leaf was fully emerged, with 7-10 seedlings per pot. These plants were inoculated with an aqueous spore suspension of Zymoseptoria tritici either prior to or after fungicide treatments. After inoculation the plants were kept in 100% relative humidity (one day in a dark dew chamber followed by two to three days in a lighted dew chamber at 20° C.) to permit spores to germinate and infect the leaf. The plants were then transferred to a greenhouse set at 20° C. for disease to develop. When disease symptoms were fully expressed on the 1st leaves of untreated plants, infection levels were assessed on a scale of 0 to 100 percent disease severity. Percent disease control was calculated using the ratio of disease severity on treated plants relative to untreated plants. Sugar beet plants (variety HH88) were grown in soil-less Metro mix and trimmed regularly to maintain a uniform plant size prior to test. Plants were inoculated with a spore suspension 24 hr after fungicide treatments. Inoculated plants were kept in a dew chamber at 22° C. for 48 hr then incubated in a greenhouse set at 24° C. under a clear plastic hood with bottom ventilation until disease symptoms were fully expressed. Fungicide formulation, application and disease assessment on the sprayed leaves followed the procedures as described in the Example A.

Experiment [4] concerns Alternaria solani. The experiment can be described thus: Tomato Early Blight fungicidal activity (ALTESO). The class given is in vivo. The note with it: 24 h, high volume, 1 Day Protectant, read-out: ALTESO % Control rating. On the procedure: All fungicides were evaluated using the aforementioned method for their activity vs. all target diseases, unless stated otherwise. Wheat leaf blotch and brown rust activity were also evaluated using track spray applications, in which case the fungicides were formulated as EC formulations, containing 0.1% Trycol 5941 in the spray solutions. Wheat plants (variety Yuma) were grown from seed in a greenhouse in 50% mineral soil/50% soil-less Metro mix until the first leaf was fully emerged, with 7-10 seedlings per pot. These plants were inoculated with an aqueous spore suspension of Zymoseptoria tritici either prior to or after fungicide treatments. After inoculation the plants were kept in 100% relative humidity (one day in a dark dew chamber followed by two to three days in a lighted dew chamber at 20° C.) to permit spores to germinate and infect the leaf. The plants were then transferred to a greenhouse set at 20° C. for disease to develop. When disease symptoms were fully expressed on the 1st leaves of untreated plants, infection levels were assessed on a scale of 0 to 100 percent disease severity. Percent disease control was calculated using the ratio of disease severity on treated plants relative to untreated plants. Tomato plants (variety Outdoor Girl) were propagated in soil-less Metro mix, with each pot having one plant, and used when 12 to 14 days old. Test plants were inoculated with an aqueous spore suspension of Alternaria solani 24 hr after fungicide treatments. After inoculation the plants were kept in a dew room at 22° C. with 100% relative humidity for 48 hr to permit spores to germinate and infect the leaf. The plants were then transferred to a growth room at 22° C. for disease to develop. Fungicide formulation, application and disease assessment on the sprayed leaves followed the procedures as described in the Example A.

The subject of experiment [5] is Phakopsora pachyrhizi. In words: Asian Soybean Rust fungicidal activity (PHAKPA). The settings on record: Phakopsora pachyrhizi, in Glycine max.
[6] abbreviates: 24 h, 1 Day Protectant, read-out: PUCCRT 1DP (Wheat Brown Rust, 1 Day Protectant).
[7] abbreviates: 72 h, 3 Day Curative, read-out: PUCCRT 3DC (Wheat Brown Rust, 3 Day Curative).
The mark [8] stands for this setting: 24 h, read-out: PHAKPA 1DP % Control rating, soybean, high volume, 25 ppm, 1 Day Protectant.
Setting [9] is: 72 h, read-out: PHAKPA 3DC % Control rating, soybean, high volume, 25 ppm, 3 Day Curative.

Where two headings read alike, the source gives them in different places.

In the case of `COc1ccnc(C(=O)N[C@@H](C)C(=O)O[C@@H](C)[C@H](Oc2ccccc2Cl)c2ccccc2)c1OC(C)=O` [Example 205], the pest or weed control at 121.5 g/ha in experiment [1] (setting [6]) and in experiment [1] (setting [7]) was greater than 80% in each case. Further, the pest or weed control at 100 ppm in experiment [2] is greater than 80%; in experiment [3], greater than 80%; in experiment [4], less than 80%. In addition, the pest or weed control at 25 ppm in experiment [5] (setting [8]) and in experiment [5] (setting [9]) was less than 80% throughout.

As for `COc1ccnc(C(=O)N[C@@H](C)C(=O)O[C@@H](C)[C@H](Oc2ccccc2)c2ccc(C)cc2)c1OCOC(C)=O` [Example 252], the pest or weed control at 121.5 g/ha in experiment [1] (setting [6]) and in experiment [1] (setting [7]) was greater than 80% in each case. In addition, the pest or weed control at 100 ppm in experiment [2] is greater than 80%; in experiment [3], greater than 80%; in experiment [4] it was less than 0%.

`COc1ccnc(C(=O)N[C@@H](C)C(=O)O[C@@H](C)[C@H](Oc2ccccc2)c2ccc(F)cc2C)c1OCOC(C)=O` [Example 259]: the pest or weed control at 121.5 g/ha in experiment [1] (setting [6]) and in experiment [1] (setting [7]) was greater than 80% each time. For the same compound, the pest or weed control at 100 ppm in experiment [2] was greater than 80%; in experiment [3], greater than 80%; in experiment [4] it was less than 0%. Also, the results for the pest or weed control at 25 ppm in experiment [5] (setting [8]) and in experiment [5] (setting [9]) were greater than 80% and less than 0%, respectively.

On to `COc1ccnc(C(=O)N[C@@H](C)C(=O)O[C@@H](C)[C@H](Oc2ccccc2)c2ccc3ccccc3c2)c1OCOC(C)=O` [Example 263], for which the pest or weed control at 121.5 g/ha in experiment [1] (setting [6]) and in experiment [1] (setting [7]) was greater than 80% each time. The values for the pest or weed control at 100 ppm in experiment [2], in experiment [3] and in experiment [4] were greater than 80%, greater than 80% and less than 0%, respectively.

For `COc1ccnc(C(=O)N[C@@H](C)C(=O)O[C@@H](C)[C@H](Oc2ccccc2)c2ccc(F)cc2F)c1OCOC(C)=O` [Example 250], the pest or weed control at 121.5 g/ha in experiment [1] (setting [6]) and in experiment [1] (setting [7]) was greater than 80% throughout. Moreover, the pest or weed control at 100 ppm was less than 0% in experiment [2], less than 80% in experiment [3] and less than 0% in experiment [4]. Besides, the pest or weed control at 25 ppm was greater than 80% in experiment [5] (setting [8]) and less than 80% in experiment [5] (setting [9]).

For `COc1ccnc(C(=O)N[C@@H](C)C(=O)O[C@@H](C)[C@H](Oc2cccc(F)c2)c2ccccc2)c1OCOC(C)=O` [Example 187], the pest or weed control at 121.5 g/ha in experiment [1] (setting [6]) and in experiment [1] (setting [7]) was greater than 80% each time. Also, the pest or weed control at 100 ppm in experiment [2] is greater than 80%; in experiment [3] it was greater than 80%; in experiment [4] it was less than 80%. In addition, the pest or weed control at 25 ppm was greater than 80% in experiment [5] (setting [8]) and less than 80% in experiment [5] (setting [9]).

For `COc1ccnc(C(=O)N[C@@H](C)C(=O)O[C@@H](C)[C@H](Oc2ccc(F)cc2)c2ccccc2)c1OCOC(C)=O` [Example 237], the pest or weed control at 121.5 g/ha in experiment [1] (setting [6]) and in experiment [1] (setting [7]) was greater than 80% in each case. The figures for the pest or weed control at 100 ppm in experiment [2], in experiment [3] and in experiment [4] were greater than 80%, greater than 80% and less than 80%, respectively. Further, the pest or weed control at 25 ppm in experiment [5] (setting [8]) and in experiment [5] (setting [9]) was less than 80% in each case.

For `COc1ccnc(C(=O)N[C@@H](C)C(=O)O[C@@H](C)[C@H](Oc2cc(F)cc(Cl)c2)c2ccccc2)c1OC(C)=O` [Example 207], the figures for the pest or weed control at 121.5 g/ha in experiment [1] (setting [6]) and in experiment [1] (setting [7]) were greater than 80% and less than 80%, respectively. Besides, the results for the pest or weed control at 100 ppm in experiment [2], in experiment [3] and in experiment [4] were greater than 80%, greater than 80% and less than 0%, respectively. Moreover, the pest or weed control at 25 ppm in experiment [5] (setting [8]) and in experiment [5] (setting [9]) was less than 80% in each case.

`COc1ccnc(C(=O)N[C@@H](C)C(=O)O[C@@H](C)[C@H](Oc2ccccc2)c2ccc(F)cc2Cl)c1OCOC(C)=O` [Example 260]: the pest or weed control at 121.5 g/ha in experiment [1] (setting [6]) and in experiment [1] (setting [7]) was greater than 80% in each case. For the same compound, the pest or weed control at 100 ppm was greater than 80% in experiment [2], greater than 80% in experiment [3] and less than 0% in experiment [4]. Also, the pest or weed control at 25 ppm in experiment [5] (setting [8]) was greater than 80%; in experiment [5] (setting [9]) it was less than 80%.

Regarding `COc1ccccc1[C@@H](Oc1ccccc1)[C@H](C)OC(=O)[C@H](C)NC(=O)c1nccc(OC)c1OCOC(C)=O` [Example 255], the pest or weed control at 121.5 g/ha in experiment [1] (setting [6]) and in experiment [1] (setting [7]) was greater than 80% in each case. Also, the values for the pest or weed control at 100 ppm in experiment [2], in experiment [3] and in experiment [4] were greater than 80%, greater than 80% and less than 0%, respectively. The pest or weed control at 25 ppm in experiment [5] (setting [8]) was greater than 80%; in experiment [5] (setting [9]), less than 0%.

Regarding `COc1ccnc(C(=O)N[C@@H](C)C(=O)O[C@@H](C)[C@H](Oc2cccc(Cl)c2)c2ccccc2)c1OCOC(C)=O` [Example 202], the pest or weed control at 121.5 g/ha is greater than 80% in experiment [1] (setting [6]) and less than 80% in experiment [1] (setting [7]). Further, the pest or weed control at 100 ppm was less than 80% in experiment [2], less than 80% in experiment [3] and less than 0% in experiment [4]. The pest or weed control at 25 ppm in experiment [5] (setting [8]) is greater than 80%; in experiment [5] (setting [9]), less than 80%.

`COc1ccnc(C(=O)N[C@@H](C)C(=O)O[C@@H](C)C(Oc2ccc(F)cc2)c2ccccc2)c1OC(C)=O` (stereo partly drawn) [Example 236]: the pest or weed control at 121.5 g/ha in experiment [1] (setting [6]) and in experiment [1] (setting [7]) was greater than 80% in each case. In addition, the results for the pest or weed control at 100 ppm in experiment [2], in experiment [3] and in experiment [4] were greater than 80%, greater than 80% and less than 80%, respectively. Also, the pest or weed control at 25 ppm in experiment [5] (setting [8]) is greater than 80%; in experiment [5] (setting [9]), less than 0%.

For the compound `COc1ccnc(C(=O)N[C@@H](C)C(=O)O[C@@H](C)[C@H](Oc2ccc(F)cc2)c2ccccc2)c1OC(C)=O` [Example 235], the pest or weed control at 121.5 g/ha in experiment [1] (setting [6]) and in experiment [1] (setting [7]) was greater than 80% in each case. For the same compound, the pest or weed control at 100 ppm in experiment [2] was greater than 80%; in experiment [3] it was greater than 80%; in experiment [4], less than 80%. Further, the pest or weed control at 25 ppm in experiment [5] (setting [8]) and in experiment [5] (setting [9]) was less than 80% in each case.
